The values that follow come from article PMC11364104, “Discovery of SARS-CoV-2 papain-like protease (PL^pro) inhibitors with efficacy in a murine infection model” (Science Advances, 2024).

The structures appear in SMILES notation. Converted amounts (≈) assume the structure as drawn.

One series in a line: LogD. Type of series: physicochemical.
The next series can be described thus: Thermodynamic solubility. Type of series: physicochemical. The note with it: pH 7.4, aqueous buffer, thermodynamic from solid.
The next series is described as follows: Monkey pharmacokinetics. Type of series: in vivo. The note with it: plasma, Male Cynomolgus Monkey, 1.0 mg/kg iv, solution, mean n=2. The procedure:
from Vital River (Beijing, China) and were typically 7-9 weeks of age at the time of dosing.
During the pharmacokinetic studies all animals were housed individually. Access to food and water was provided ad libitum (i.e., subjects were dosed in the fed state). In the instances where oral (po) dose was administered in the fed state, with ad libitum access to food and water. Compounds were administered intravenously (iv) via the tail vein (n = 2) dosed as a solution (1 mg/kg, 3 ml/kg) or via oral gavage as a solution (10 mg/kg, 10 ml/kg). Dosing solutions were prepared immediately before dosing. The composition of each dosing vehicle […]
Serial blood samples were collected via the jugular vein cannula at predetermined timepoints after dosing. Animals were monitored for pain or distress throughout the study, with at least daily monitoring during normal husbandry prior to study start. At the completion of the study, animals were euthanized by overdose of inhaled carbon dioxide. Blood samples were collected into tubes containing K2EDTA and stored on ice until centrifugation to obtain plasma, which was stored frozen at - 20 °C or lower.
Dog pharmacokinetic studies were done at Pfizer (Groton, CT). All procedures performed on beagle dogs were in accordance with regulations and established guidelines and were reviewed and approved by an Institutional Animal Care and Use Committee through an ethical review process. Male Beagle dogs were purchased from Marshall Bioresources (North Rose, NY); subjects 3 years of age were used in pharmacokinetics studies. For each study (n=2), compounds were dosed iv by cephalic vein as a solution (0.5 mg/kg, 1 mL/kg) or via oral gavage as a suspension (3 mg/kg, 5 mL/kg). In the instances where oral (po) dose was administered in the fed state, dogs were fed a couple hours before dosing. In the instances where the IV dose was administered in the fasted state, dogs were fasted over night and fed 4 hours post dose. Subjects were monitored for pain or distress throughout the study followed by at least daily monitoring while off study. The iv dosing vehicle was optimized such that the compounds were in solution and stable for at least 24 h. Serial blood samples were collected via the jugular vein at predefined time points post-dose. […]
Monkey pharmacokinetic studies were conducted at Pfizer (Groton, CT). […] Subjects were monitored for pain or distress throughout the study followed by at least daily monitoring while off study. […]
Plasma samples were processed using protein precipitation with 50:50 acetonitrile: methanol containing terfenadine (5 ng/ml) as an internal standard followed by quantitation against a standard curve (0.1-1000 ng/ml) prepared in blank plasma. Quantitation of analyte in plasma samples was done using LC-MS/MS. […]

Another series has as its target T1, Human Cathepsin D (Homo sapiens, UniProt P07339).
T1 construct: assay run at Reaction Biology Corporation
Kind of series: biochemical.

In the next series the target is T2, Human Cathepsin L (Homo sapiens, UniProt P07711).
T2 construct: assay run at Reaction Biology Corporation
Briefly: biochemical.

A further series concerns the target T3, Human Cathepsin S (Homo sapiens, UniProt P25774).
T3 construct: assay run at Reaction Biology Corporation
Kind of series: biochemical.

The target of a further series is T4, PDE3B (Homo sapiens, UniProt Q13370).
T4 construct: purchased Eurofins Cerep
Briefly: CEREP enzyme inhibition. The series is classed as biochemical.

In series [1] the target is T5, Norepinephrine Transporter (Homo sapiens, UniProt P23975).
T5 construct: purchased Eurofins Cerep
Briefly: CEREP transporters-binding.

The next series addresses T6, Choline Transporter (Homo sapiens, UniProt Q9GZV3).
T6 construct: purchased Eurofins Cerep
Kind of series: CEREP transporters-binding.

Another series concerns the target T7, PPAR gamma (Binding) (Homo sapiens, UniProt P37231).
T7 construct: purchased Eurofins Cerep
Kind of series: CEREP NHR-binding.

The target of another series is T8, GABAa1 Receptor (Homo sapiens, UniProt P14867).
T8 construct: purchased Eurofins Cerep
Kind of series: CEREP ion channel-binding.

Series [2] concerns Nicotinic Ach Receptor (muscle). Briefly: CEREP ion channel-binding. The conditions noted are these: 30 µM.
The target of a further series is T9, Serotonin 3 (Homo sapiens, UniProt P46098).
T9 construct: purchased Eurofins Cerep
Kind of series: CEREP ion channel-binding.

Series [3] is described as follows: in vitro. The conditions noted are these: male, Wistar-Hannover, rat, plasma.
Series [4] in a line: in vitro. The conditions noted are these: dog, plasma.
The next series has as its target CYP2C9 (Homo sapiens, UniProt P11712). Briefly: biochemical.

In general, logD refers to lipophilicity at a set pH, counting ionised and neutral species. As a reminder, the solubility (thermodynamic) is the concentration in solution at equilibrium with solid. One may read the AUC(0-inf) as total exposure, with the tail of the curve extrapolated. As usually defined, the half-life is the time needed for the level to fall by half in the phase considered. As usually defined, the IC50 is the concentration that inhibits the measured activity by half. Broadly, the inhibition is the relative decrease from the control value, in per cent. Usually % inhibition stands for the share of the control response that was lost under treatment. In general, fraction unbound refers to the share of the substance not bound to proteins or other matrix.

T2 sequence (P07711 114-333): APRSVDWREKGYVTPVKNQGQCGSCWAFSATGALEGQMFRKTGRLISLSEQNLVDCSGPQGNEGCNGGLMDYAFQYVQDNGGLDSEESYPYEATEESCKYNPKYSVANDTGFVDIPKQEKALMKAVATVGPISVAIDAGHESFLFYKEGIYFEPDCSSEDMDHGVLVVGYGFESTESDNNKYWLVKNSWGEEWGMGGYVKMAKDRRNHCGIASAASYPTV
T4 sequence (Q13370 whole entry): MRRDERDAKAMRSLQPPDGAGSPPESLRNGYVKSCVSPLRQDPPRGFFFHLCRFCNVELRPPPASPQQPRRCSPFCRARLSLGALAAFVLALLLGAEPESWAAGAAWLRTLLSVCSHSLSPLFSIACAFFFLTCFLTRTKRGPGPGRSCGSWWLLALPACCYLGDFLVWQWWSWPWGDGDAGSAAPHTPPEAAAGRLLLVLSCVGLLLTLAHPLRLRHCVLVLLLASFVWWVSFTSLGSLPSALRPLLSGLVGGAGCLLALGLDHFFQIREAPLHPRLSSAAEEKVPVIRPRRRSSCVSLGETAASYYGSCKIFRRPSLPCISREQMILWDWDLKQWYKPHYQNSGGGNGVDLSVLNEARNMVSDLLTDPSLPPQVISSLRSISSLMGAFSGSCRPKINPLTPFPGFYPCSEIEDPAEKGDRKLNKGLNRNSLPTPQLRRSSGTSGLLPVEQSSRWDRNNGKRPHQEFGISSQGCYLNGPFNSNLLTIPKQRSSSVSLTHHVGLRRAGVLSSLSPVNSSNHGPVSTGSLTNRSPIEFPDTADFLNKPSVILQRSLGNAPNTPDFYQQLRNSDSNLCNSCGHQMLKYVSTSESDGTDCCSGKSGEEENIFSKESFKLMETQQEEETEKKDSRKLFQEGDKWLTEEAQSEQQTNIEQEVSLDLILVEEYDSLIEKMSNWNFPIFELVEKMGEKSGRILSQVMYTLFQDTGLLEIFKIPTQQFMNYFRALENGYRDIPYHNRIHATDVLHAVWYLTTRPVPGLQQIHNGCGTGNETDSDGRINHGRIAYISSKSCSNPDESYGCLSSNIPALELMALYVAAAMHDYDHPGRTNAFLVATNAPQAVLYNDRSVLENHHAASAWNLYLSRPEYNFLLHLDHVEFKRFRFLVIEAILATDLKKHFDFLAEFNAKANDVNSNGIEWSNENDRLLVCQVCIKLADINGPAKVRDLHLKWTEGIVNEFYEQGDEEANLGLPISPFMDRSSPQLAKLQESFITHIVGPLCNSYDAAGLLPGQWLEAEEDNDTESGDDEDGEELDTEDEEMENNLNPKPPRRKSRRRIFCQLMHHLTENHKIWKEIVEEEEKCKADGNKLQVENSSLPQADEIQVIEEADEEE
T5 sequence (P23975 whole entry): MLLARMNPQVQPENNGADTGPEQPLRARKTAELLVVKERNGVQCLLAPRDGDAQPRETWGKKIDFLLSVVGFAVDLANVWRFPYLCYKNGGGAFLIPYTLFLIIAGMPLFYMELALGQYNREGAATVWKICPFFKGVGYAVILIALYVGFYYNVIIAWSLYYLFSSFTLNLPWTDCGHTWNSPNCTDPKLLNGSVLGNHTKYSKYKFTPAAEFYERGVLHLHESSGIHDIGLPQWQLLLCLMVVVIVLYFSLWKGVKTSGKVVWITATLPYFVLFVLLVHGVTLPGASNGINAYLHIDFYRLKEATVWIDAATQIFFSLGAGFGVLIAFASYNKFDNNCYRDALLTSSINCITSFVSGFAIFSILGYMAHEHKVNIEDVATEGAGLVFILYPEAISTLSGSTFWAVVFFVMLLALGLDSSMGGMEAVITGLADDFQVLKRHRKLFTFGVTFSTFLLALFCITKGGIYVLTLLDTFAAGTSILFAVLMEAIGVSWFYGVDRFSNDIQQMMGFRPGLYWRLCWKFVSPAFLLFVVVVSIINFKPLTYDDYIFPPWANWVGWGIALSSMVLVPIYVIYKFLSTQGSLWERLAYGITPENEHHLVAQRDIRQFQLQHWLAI
T7 sequence (P37231 whole entry): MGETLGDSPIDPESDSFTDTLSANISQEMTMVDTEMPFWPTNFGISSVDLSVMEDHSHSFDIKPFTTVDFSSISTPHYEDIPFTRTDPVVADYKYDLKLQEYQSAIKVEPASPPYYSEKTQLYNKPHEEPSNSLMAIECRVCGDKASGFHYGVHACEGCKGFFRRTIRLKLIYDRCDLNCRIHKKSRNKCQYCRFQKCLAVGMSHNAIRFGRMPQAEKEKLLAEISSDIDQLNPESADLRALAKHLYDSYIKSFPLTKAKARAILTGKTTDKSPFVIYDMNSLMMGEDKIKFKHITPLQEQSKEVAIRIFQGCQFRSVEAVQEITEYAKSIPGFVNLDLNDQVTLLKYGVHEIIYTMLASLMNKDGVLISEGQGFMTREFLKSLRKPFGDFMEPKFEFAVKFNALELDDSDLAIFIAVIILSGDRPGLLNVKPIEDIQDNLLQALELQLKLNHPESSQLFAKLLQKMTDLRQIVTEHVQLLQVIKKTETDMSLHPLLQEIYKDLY
T8 sequence (P14867 28-456): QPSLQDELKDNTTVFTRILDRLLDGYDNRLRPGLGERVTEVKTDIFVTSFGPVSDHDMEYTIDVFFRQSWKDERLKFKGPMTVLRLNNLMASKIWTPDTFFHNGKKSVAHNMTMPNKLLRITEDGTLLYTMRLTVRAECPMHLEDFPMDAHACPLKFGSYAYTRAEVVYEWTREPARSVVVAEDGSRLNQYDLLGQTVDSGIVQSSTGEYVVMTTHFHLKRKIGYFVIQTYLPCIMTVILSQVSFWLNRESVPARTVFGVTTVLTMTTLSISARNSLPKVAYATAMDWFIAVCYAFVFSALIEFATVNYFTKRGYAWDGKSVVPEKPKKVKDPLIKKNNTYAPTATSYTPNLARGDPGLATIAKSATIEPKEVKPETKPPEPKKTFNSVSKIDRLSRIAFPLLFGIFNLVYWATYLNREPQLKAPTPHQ
T8 sequence (P47870 26-512 partner): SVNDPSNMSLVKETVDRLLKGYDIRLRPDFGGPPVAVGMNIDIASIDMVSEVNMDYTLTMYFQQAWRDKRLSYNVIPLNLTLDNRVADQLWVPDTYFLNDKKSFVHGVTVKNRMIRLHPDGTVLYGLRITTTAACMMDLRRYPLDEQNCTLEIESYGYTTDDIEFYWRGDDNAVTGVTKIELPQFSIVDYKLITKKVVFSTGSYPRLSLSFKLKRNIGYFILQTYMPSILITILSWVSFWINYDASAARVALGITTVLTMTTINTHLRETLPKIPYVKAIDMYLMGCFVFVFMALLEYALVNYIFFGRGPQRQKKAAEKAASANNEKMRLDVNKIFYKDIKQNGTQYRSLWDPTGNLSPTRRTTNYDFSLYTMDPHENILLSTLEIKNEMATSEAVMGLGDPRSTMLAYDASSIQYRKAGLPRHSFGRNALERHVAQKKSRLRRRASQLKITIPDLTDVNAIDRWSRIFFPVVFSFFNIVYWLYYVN
T8 sequence (P18507 40-475 partner): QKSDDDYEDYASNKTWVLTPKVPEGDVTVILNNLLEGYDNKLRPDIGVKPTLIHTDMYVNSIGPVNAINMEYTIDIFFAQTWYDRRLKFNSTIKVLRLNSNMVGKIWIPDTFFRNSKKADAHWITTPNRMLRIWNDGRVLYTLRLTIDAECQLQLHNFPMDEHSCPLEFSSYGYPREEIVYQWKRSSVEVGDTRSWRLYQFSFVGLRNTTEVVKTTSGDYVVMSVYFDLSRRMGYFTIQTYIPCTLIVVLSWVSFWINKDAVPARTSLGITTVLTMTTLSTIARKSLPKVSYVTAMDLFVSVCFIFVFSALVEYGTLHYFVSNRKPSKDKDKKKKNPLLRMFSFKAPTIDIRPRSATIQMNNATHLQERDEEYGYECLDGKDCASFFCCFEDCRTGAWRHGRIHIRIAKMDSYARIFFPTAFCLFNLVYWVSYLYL
T9 sequence (P46098 24-478): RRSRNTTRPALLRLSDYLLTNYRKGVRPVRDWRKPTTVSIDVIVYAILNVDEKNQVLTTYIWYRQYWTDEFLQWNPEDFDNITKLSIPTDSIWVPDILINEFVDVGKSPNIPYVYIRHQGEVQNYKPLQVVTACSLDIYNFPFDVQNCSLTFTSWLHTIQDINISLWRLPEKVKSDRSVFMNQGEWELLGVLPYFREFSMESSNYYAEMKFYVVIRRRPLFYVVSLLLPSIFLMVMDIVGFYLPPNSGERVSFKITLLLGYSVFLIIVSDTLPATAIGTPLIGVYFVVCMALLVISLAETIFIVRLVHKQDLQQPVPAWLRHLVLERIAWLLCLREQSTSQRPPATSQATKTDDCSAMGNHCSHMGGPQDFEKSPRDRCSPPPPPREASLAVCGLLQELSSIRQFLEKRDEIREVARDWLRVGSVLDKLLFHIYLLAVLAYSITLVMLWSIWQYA
T1 sequence (P07339 65-412): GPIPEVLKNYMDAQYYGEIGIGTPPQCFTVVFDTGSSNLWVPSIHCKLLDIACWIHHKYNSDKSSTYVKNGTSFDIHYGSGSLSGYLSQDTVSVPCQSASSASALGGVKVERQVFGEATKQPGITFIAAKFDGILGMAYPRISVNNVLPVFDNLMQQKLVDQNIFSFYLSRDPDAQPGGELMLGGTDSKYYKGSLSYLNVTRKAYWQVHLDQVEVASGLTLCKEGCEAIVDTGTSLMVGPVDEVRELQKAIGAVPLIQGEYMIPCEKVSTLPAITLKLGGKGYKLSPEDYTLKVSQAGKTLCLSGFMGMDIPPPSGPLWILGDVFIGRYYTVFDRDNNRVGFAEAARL
T3 sequence (P25774 115-331): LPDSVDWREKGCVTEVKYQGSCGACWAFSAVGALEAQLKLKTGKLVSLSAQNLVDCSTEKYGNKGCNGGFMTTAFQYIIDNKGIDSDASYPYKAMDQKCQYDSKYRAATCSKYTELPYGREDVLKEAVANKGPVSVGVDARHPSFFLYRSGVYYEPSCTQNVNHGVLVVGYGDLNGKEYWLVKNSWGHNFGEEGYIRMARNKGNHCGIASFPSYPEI

In “LogD”, `Cc1ccc(N2CCN(C)CC2)cc1C(=O)NC1(c2cc(-c3cnn(C)c3)nc3ccccc23)CC1` [Compound 4] registered a logD of 2.5. Further, the thermodynamic solubility in the series “Thermodynamic solubility” came out at 541 µM (≈ 260 µg/mL). The AUC(0-inf) in the series “Monkey pharmacokinetics” is 1600 ng·h/mL. The compound also gave a half-life in “Monkey pharmacokinetics” of 3.56 h. Also, the clearance in “Monkey pharmacokinetics” (read-out: CLp) was found to be 10.7 mL/min/kg. In addition, the Vd in the series “Monkey pharmacokinetics” (read-out: Vdss) was 2.09 L/kg. Moreover, the 50% inhibitory concentration (IC50) is greater than 100 µM against Human Cathepsin D, greater than 100 µM against Human Cathepsin L, greater than 100 µM against Human Cathepsin S and greater than 30 µM at CYP2C9. Further, the inhibition at 30 µM against PDE3B was 4%; in [1], -6%; at Choline Transporter, 25%; on PPAR gamma (Binding), 9%; on GABAa1 Receptor, 10%; at Serotonin 3, -10%. Also, the “% inhibition” value in [2] is reported as 2%. In addition, the fraction unbound in the series “in vitro [3]” is 0.241; in “in vitro [4]”, 0.176.
